We go through six compounds from publication PMC8949075, “Evaluation of Two Novel Hydantoin Derivatives Using Reconstructed Human Skin Model Episkin^TM: Perspectives for Application as Potential Sunscreen Agents” (Molecules, 2022).

Details of series [1]: method as in earlier work. Particulars: cited from earlier work.
Details of series [2]: method as in PMID 26674115. Particulars: cited from earlier work.
For a further series, the system named is CHO-K1 cells. The series can be described thus: In vitro micronucleus assay. It counts as cell-based, Chinese hamster. The procedure: The CHO-K1 cells were seeded in 6-well plates at a density of 1 × 10^6 cells/well and incubated overnight at 37 °C, 5% CO2 atmosphere. […] The test compounds and 4MBC were dissolved in DMSO (solvent, final concentration 0.1%) and ethanol (co-solvent, final concentration 1%). After 24 h of treatment, the medium was removed, and the cells were rinsed with PBS. Then, fresh medium containing cytochalasin B (CytB; Sigma Aldrich, Darmstadt, Germany) (4.5 µg/mL) was added and incubation was continued for the next 24 h.
After the incubation period, the cells were washed with fresh medium, detached by trypsinization, and centrifuged. The supernatant was discarded and 5 mL of 1% ice-cold sodium citrate (Chempur, Piekary Śląskie, Poland) was added to the cell pellet, which was then gently resuspended. After 15 s, 5 mL of freshly prepared fixative solution (methanol/acetic acid, 3:1) and 4 drops of formaldehyde were added. The cell suspension was centrifuged (5 min, 1000 rpm), the supernatant was discarded again, and the pellet was fixed in fixative mixture two more times, without formaldehyde. After the third fixation, part of the supernatant was removed, and around 1 mL of the supernatant was retained to resuspend the cells. The suspension was then dripped onto clean, previously frozen, glass slides to dry. After air-drying, the slides were stained with Giemsa dye (1:20 in phosphate buffer) for 5 min [56, 78, 79].
One thousand binucleated cells per slide with intact nuclei of equal size, similar pattern of cytoplasm staining, intact membrane, and distinguishable from adjacent cells, without apoptotic and necrotic cells were analyzed. Only the micronuclei with the same morphology and color of the main nuclei, with 1/16 to 1/3 of the major nucleus diameter, unrefringent and not overlapping or connected to the main nuclei were counted. Moreover, the presence of dicentric bridges (DB) and nuclear buds (NB) in the binucleated cells was analyzed. The nuclear division index (NDI) was calculated using the following formula: [(1 × MOC) + (2 × BC) + (3 × MUC)]/N, where MOC is the number of mononuclear cells, BC is the number of binuclear cells, MUC represents the number of multinuclear cells, and N is the total number of scored cells. The micronucleus incidence was presented as a number of micronuclei per 1000 examined binuclear cells. The experiment was conducted two times with three repetitions for each condition.

The conditions of series [3]: cited from earlier work.
Series [4] is described as follows: Episkin skin permeation test (finite dose, OECD 428). It counts as in vitro ADME, human. Particulars: human; 24 h exposure, 10 mg/cm^2 finite dose, 2% formulation; read-out: recovery in the epidermis (of the applied dose). The procedure:
(§1) The MM was provided by the manufacturer.
(§2) The receptor fluid composition was based on the pilot experiments.
(§3) The formulations of the test compounds (JH3 and JH10) and commercial UV filters were applied onto the skin surface in the donor compartment in a net dose of 10 mg/cm^2 (finite dose application) using disposable flexible loops. To quantify the dose of the formulation applied on the top of the Episkin^TM model, the loops were weighed, filled with approximately 11 mg of formulation, and then reweighed. The difference in weight was used as the amount of formulation applied. Commercial UV filters such as BP3, 4MBC, and AVO were used as reference standards. The filters were obtained from Sigma-Aldrich, Darmstadt, Germany.
(§4) The plate with tissues was embedded with parafilm and incubated at specific time points at 32 °C. As the passive diffusion of chemicals (and therefore their skin absorption) is affected by temperature, the diffusion chamber and skin were maintained at a constant temperature close to normal skin temperature of 32 ± 1 °C [19, 23, 30, 32]. At fixed time points (0, 1, 2, 3, 4, 5, 6, and 24 h), aliquots of the receptor fluid (0.5 mL) were collected from the receptor compartment and immediately replaced with fresh fluid. After 24 h the entire receptor fluid was collected, and the skin surface was washed thoroughly with cotton buds impregnated in methanol (5 times). The tissues were removed from the inserts and both the donor and receptor compartments were washed separately with methanol. The samples were stored at −20 °C until chemical analysis.
(§5) All samples were spiked with 25 µL of pentoxifylline (PTX, Sigma-Aldrich, Darmstadt, Germany) (final concentration of 20 µM) used as an internal standard prior to extraction. The samples were analyzed using ultra high-pressure liquid chromatography coupled with mass spectrometry (UHPLC/MS; Waters Corporation, Milford, MA, USA). Quantification was based on peak area and calculated from standard calibration curves of the compound adjusted by the internal standard area. The assay was in agreement with the Organization for Economic Co-operation and Development (OECD) guideline 428 [19].

The subject of series [5] is Episkin^TM reconstructed human epidermis. The series is described as above. The class given is in vitro ADME. Particulars: 2% formulation; for absorbed amount detected in the RF (of the applied dose): 24 h exposure, 10 mg/cm^2 finite dose; for detection in the receptor fluid over time: sampling 0-6 and 24 h; for detection in the receptor fluid over time / absorption rate (amount in receptor fluid): 10 mg/cm^2; for absorption rate (amount in receptor fluid): after 24 h. The procedure:
as §1, §2, §3, §4, §5

The nature of series [6]: CHO-K1 cytotoxicity assay (MTT). The class given is cell-based. Particulars: Chinese hamster, CHO-K1 cells, concentrations ranging from 1 to 10 µM. The procedure: The Chinese hamster ovary CHO-K1 cell line was obtained from the American Type Culture Collection (ATCC CCL-61). The CHO-K1 cell line was cultured in a humidified incubator at 37 °C with 5% CO2, in F-12K Medium (Kaighn’s Modification of Ham’s F-12 Medium) (ATCC) supplemented with 10% fetal bovine serum (FBS; Gibco, Waltham, MA, USA) and antibiotics (1% streptomycin/penicillin salts mixture, Sigma–Aldrich, Darmstadt, Germany).
The cells were seeded at a density of 6 × 10^3 on 96-well plates. […] Test compounds and 4MBC were dissolved in DMSO (solvent, final concentration 0.1%) and ethanol (co-solvent, final concentration 1%). At the end of the incubation period, 10 µL of MTT reagent was added to each well. After 4 h incubation (37 °C, 5% CO2), the medium was discarded, and the formazan produced in the cells appeared as dark crystals in the bottom of the wells. Next, pure DMSO was added to each well. The optical density data of converted dye was measured at 570 nm (A570) on microplate reader. […] The experiment was conducted two times with three repetitions for each condition.

The nature of series [7]: Episkin phototoxicity test (UVA 50 J/cm^2; MTT viability, Il-1α release). The class given is cell-based, human. Particulars: human; 0.5 mM, UVA 50 J/cm^2; read-out: tissue viability after UVA exposure compared to non-irradiated epidermis. On the procedure:
as §1
Compounds JH3 and JH10 (final concentrations of 0.5 and 1 mM) solubilized in ethanol (final concentration of 1% in water) were applied topically on the tissue surface. Chlorpromazine (CPZ, chlorpromazine hydrochloride, C17H19ClN2S·HCl, CAS number: 69-09-0, molecular weight: […], purity: meets USP testing specifications, Sigma-Aldrich, Darmstadt, Germany) (final concentration of 0.5 mM, based on literature data) was used as a positive control, whereas solvent alone served as a negative control.
Duplicate plates were prepared for UVA and dark (controls) exposure purposes. After the treatment period of 2 h, the excess test compound was removed from each well, and the tissues were exposed to UVA at a non-cytotoxic dose of 50 J/cm^2 ([…] at 250 W/m^2) with a solar light simulator equipped with a window glass filter and ID65 filter (Suntest CPS+, Atlas, Linsengericht, Germany). The emitted spectrum contained both UV and visible outputs with a UV cut-on of approx. 320 nm and corresponded to ID65 per ISO 10,977 [74]. The irradiance level between 320 and 400 nm was approximated by the following equation: W/m^2 (320–400 nm) = W/m^2 (300–800 nm) ÷ 11.5. In parallel, the non-irradiated treated tissues were placed in the dark under the same conditions. […] Next, cell viability was assessed using an MTT conversion test and the culture media aliquots were kept frozen (−20 °C) for Il-1α measurement (see 2.3.2. The Episkin^TM skin irritation test method section).

Series [8] deals with Episkin^TM reconstructed human epidermis. Kind of series: Episkin skin irritation test (MTT viability, Il-1α release; OECD 439). Particulars: 26 mg/cm^2 topical, 15 min exposure, 42 h post-incubation.
Text: The Episkin^TM model (aged 13 days, large/1.07 cm^2 surface area) was provided by Episkin (Lyon, France). The Episkin^TM kit consists of 12 reconstructed epidermis units made of type I collagen matrix, representing the dermis, surfaced with a film of type IV collagen, upon which is laid a stratified and differentiated epidermis derived from human keratinocytes [17]. Upon receipt of the tissues, the culture inserts were removed from the agarose-nutrient solution and transferred into 12-well plates containing 2 mL of the maintenance medium (MM) per well. The MM was provided by the manufacturer. Tissues were then incubated for 24 h at 37 °C in a humidified atmosphere of 5% CO2 before use in the permeation, irritation, or phototoxicity experiments.
Prior to the irritation experiments, the Episkin^TM inserts were washed with sterile PBS to remove traces of the MM and transferred into new 12-well plates containing 2 mL of fresh MM. […] Sodium dodecyl sulphate (SDS; Sigma-Aldrich, Darmstadt, Germany) (5% in water) and PBS were used as positive and negative controls, respectively. Both controls were applied topically (26 mg/cm^2). Samples were tested in two independent experiments using three tissues for each chemical, positive, or negative control.
Then, the tissues were placed in new 12-well plates containing 2 mL of the MM per well and incubated for an additional 42 h at 37 °C in a humidified atmosphere of 5% CO2 as post-treatment incubation time. At the end of this period, the culture media of each tissue were collected and stored at −20 °C for Il-1α measurement.
The cell viability was assessed by a subsequent incubation of the tissues for 3 h with freshly prepared 3-(4,5-dimethylthiazol-2-yl)-2,5-diphenyltetrazolium bromide (MTT; Sigma-Aldrich, Darmstadt, Germany) solution (0.3 mg/mL in assay medium (AM)) in a 12-well plate. Then, a biopsy of the epidermis was done using a puncher (Episkin, Lyon, France), and the precipitated formazan was extracted using 500 µL of acidified isopropanol (Chempur, Piekary Śląskie, Poland) (0.04 N HCl in isopropanol) for 48 h (4 °C). At the end of the extraction period, 200 µL of each sample were transferred to 96-well plates for absorbance measurements at 570 nm (A570) [70, 71, 72, 73]. […] Viability (percent of control) was determined by dividing A570 of experimental wells by A570 of control wells × 100%. The test substance was considered as an irritant when mean tissue viability was equal or less than 50% [16, 17].
Il-1α measurement was conducted by a classic enzyme-linked immunosorbent assay (ELISA) technique (Cayman Chemical, Ann Arbor, MI, USA). Firstly, 100 µL of the samples were added into a 96-well ready to use microtiter plate (precoated with a monoclonal antibody specific for Il-1α (Il-1α capture antibody). Secondly, 100 µL of an acetylcholinesterase:Fab’ Conjugate (AChE:Fab’) was added to each well. The plate was covered with plastic film and incubated overnight at 4 °C. At the end of the incubation period the contents of each well were removed and rinsed five times with wash buffer. Next, 200 µL of Ellman’s reagent (containing the substrate for AChE) was added to each well, the plate was covered with plastic film and developed in the dark using an orbital shaker. The absorbance of the wells was measured at 410 nm. Il-1α concentrations were then calculated using the standard curve.

In general, log P refers to the decadic logarithm of the partition coefficient of the neutral form, usually between octanol and water. A word on the viability: it is the share of living cells, or the viability signal relative to a control. `Cc1ccc(C=C2C(=O)C3(C)CCC2C3(C)C)cc1` (stereo not drawn) [4MBC, 3-(4-methylbenzylidene) camphor, reference compound]: the “in vitro chromosomal aberration test result” value in series [1] is reported as “negative”. In addition, the “log P” value in [2] is on record as 4.95. Also, in the series on CHO-K1 cells (Chinese hamster, 24 h, 1 µM), the “DB (dicentric bridges)” value is reported as 4.6, the “MN (micronuclei)” value was 8.3 ± 2.9, the “NB (nuclear buds)” value was 3.7 and the “NDI (nuclear division index)” value is on record as 1.35. Also, in the series on CHO-K1 cells (Chinese hamster, 24 h, 5 µM), the “DB (dicentric bridges)” value was 4.5, the “MN (micronuclei)” value is recorded as 9.0 ± 3.4, the “NB (nuclear buds)” value amounted to 3.5 and the “NDI (nuclear division index)” value came out at 1.30. Further, in the series on CHO-K1 cells (Chinese hamster, 24 h, 10 µM), the “DB (dicentric bridges)” value was 3.4, the “MN (micronuclei)” value was 7.3 ± 4.4, the “NB (nuclear buds)” value worked out at 4.9 and the “NDI (nuclear division index)” value came to 1.39. For the same compound, the “bacterial mutation (Ames) assay result” value in series [3] was “negative”. The recovery at 24 h, 2 % in formulation in series [4] came out at 28%. In series [5], the “absorbed amount detected in the RF (of the applied dose)” value (shortened to “absorbed amount detected in the RF”) is listed as 3% and the “detection in the receptor fluid over time” value is listed as “detected only after 24 h exposure”. This compound came in with a viability at 24 h in [6] greater than 75%.
Consider `COc1ccc(C(=O)CC(=O)c2ccc(C(C)(C)C)cc2)cc1` [AVO, avobenzone], for which the “log P” value in [2] is 4.51. Also, the recovery at 24 h, 2 % in formulation in series [4] came out at 16%. In addition, in series [5], the “absorbed amount detected in the RF” value is “about 1%” and the “absorption rate (amount in receptor fluid)” value came out at 3 µg/cm^2.
Consider `COc1ccc(C(=O)c2ccccc2)c(O)c1` [BP3, benzophenone-3], for which, in series [4], the recovery at 24 h, 2 % in formulation was 18%. Further, in series [5], the “absorbed amount detected in the RF” value is reported as 12%, the “absorption rate (amount in receptor fluid)” value is given as 20 µg/cm^2 and the “detection in the receptor fluid over time” value is recorded as “clearly detectable after the third hour”.
As to `CN(C)CCCN1c2ccccc2Sc2ccc(Cl)cc21` [CPZ, Chlorpromazine, reference compound], the viability at 2 h, 0.5 mM in [7] is roughly 40%.
Consider `CO[C@@]12[C@H](COC(N)=O)C3=C(C(=O)C(C)=C(N)C3=O)N1C[C@@H]1N[C@@H]12` [MMC, Mitomycin C, reference compound], for which, in the series with CHO-K1 cells (0.5 µg/mL), the “increase in the number of MNs vs normal and vehicle control” value is “approximately 10 fold”; the “increase in the number of NBs vs normal and vehicle control” value is reported as 7 fold. Moreover, the “MN (micronuclei)” value with CHO-K1 cells (0.5 µg/mL (positive control), count in 1000 binucleated cells per slide) is on record as 88.5 ± 6.5.
`CCCCCCCCCCCCOS(=O)(=O)[O-].[Na+]` [SDS, Sodium dodecyl sulphate, reference compound] registered an Il-1α release in series [8] of 96 pg/mL. In addition, the mean tissue viability result in [8] (vs negative control) is on record as “approximately 10%”.
